In patent US20240033244A1, “COMPOSITIONS AND METHODS FOR INHIBITING YTHDF1” (SHANGHAI INSTITUTE OF MATERIA MEDICA, CHINESE ACADEMY OF …, priority 2020, published 2024):

Tests used:
YTHDF1 in 293T cells = target: T1, YTHDF1 in 293T cells (Homo sapiens, UniProt Q9BYJ9); assay: Cellular thermal shift assay (CETSA) in 293T cells; format: cell-based; conditions: 100 μM SAA for 4 hours
T1 construct: endogenous in cells; host or cells: 293T (ATCC)
Method: The cellular thermal shift assay (CETSA) was conducted according to the protocol reported previously. 293T cell line (ATCC) used in the assay was cultured at 37° C., 5% CO2, in DMEM culture medium (Life Technologies) containing 10% fetal calf serum (Gibco, U.S.A.), 1% penicillin/streptomycin (Life Technologies). 293T cells were collected after incubated with PBS buffer as control or 100 μM SAA for 4 hours and equally divided into twelve parts, respectively. The divided parts were heated under series of temperature range from 39° C. to 59° C. for 3 minutes and cooled at 4° C. for 3 minutes immediately. Then, the cells were lysed via freeze-thawing with liquid nitrogen and the protein samples were collected by centrifugation. Though adding in SDS loading and boiling at 99° C. for 5 minutes, the samples were prepared for western blot detection. In the western blot assays, GAPDH was used as the internal reference. And the quantitative analysis of the results of the assay was performed via ImageJ software.
Further, the binding of SAA to YTHDF1 in cells was also examined. Cellular thermal shift (CETSA) assay was performed with 293T cell line, which was collected for heating at temperatures as indicated. After incubating the cells with 100 μM SAA for 4 hours, YTHDF1 protein in the incubated 293T cells were examined with western blot. […]

His-YTHDF1 (361-559) = target: T2, His-YTHDF1 (361-559) (Homo sapiens, UniProt Q9BYJ9); assay: AlphaScreen-based assay, m6A-containing mRNA binding to YTHDF1; conditions: read-out: IC50, blocking binding between m6A and YTHDF1
T2 construct: made in house; host or cells: E. coli BL21 (DE3)
T2 sequence (Q9BYJ9 with tags, fused parts or gaps): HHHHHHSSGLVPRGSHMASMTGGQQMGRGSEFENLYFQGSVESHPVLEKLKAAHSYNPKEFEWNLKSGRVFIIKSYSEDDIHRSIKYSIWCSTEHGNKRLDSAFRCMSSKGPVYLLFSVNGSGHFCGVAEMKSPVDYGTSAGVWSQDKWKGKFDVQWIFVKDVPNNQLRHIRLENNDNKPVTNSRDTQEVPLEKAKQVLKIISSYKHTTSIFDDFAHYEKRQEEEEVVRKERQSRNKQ
Method: Then 10 nM biotinylated m^6A-containing mRNA (5′-biotin-[…] (m^6A) CUGUG-3′) (SEQ ID NO: 15) was added to bind with YTHDF1 (361-559), and unbiotinylated m^6A-containing mRNA was used as the positive control. Before Alpha signal detection, streptavidin donor beads and anti-His acceptor beads were added into the white assay plate in subdued light (OptiPlate™-384, PerkinElmer) and incubated at 4° C. for 1 hour to ensure sufficient binding between biotin tag and streptavidin donor beads, as well as that between His tag and anti-His acceptor beads. Then the Alpha signal was detected on Envision Readers (PerkinElmer).

FLT3L-DCs = assay: FLT3L-DC cross-priming of OT-I T cells in vitro (IFN-γ cytometric bead array); format: cell-based, mouse; conditions: 10 μM SAA 12 hours
Method: Bone marrow was isolated from wild-type and Ythdf1^−/− mice and treated with red cell lysis buffer to remove red blood cell. IMDM medium containing 10% fetal bovine serum was used to suspend bone marrow cells. To culture FLT3L-DCs, cell concentration was adjusted to 1×10^6/mL. Cells were cultured with 100 ng/mL FLT3L for 9 days to get mature FLT3L-DCs. Mature FLT3L-DCs were purified via EasySep Mouse CD11c Positive Selection Kit II, then treated with 10 μM SAA or DMSO in IMDM medium (contain 10% bovine and 100 ng/mL FLT3L) for 10 hours.
For in vitro cross-presentation study, mature FLT3L-DCs were harvested on day 9 and purified by EasySep Mouse CD11 c Positive Selection Kit II, then treated with 10 μM SAA or DMSO in IMDM medium (contain 10% bovine and 100 ng/mL FLT3L) for 10 h. […] Then antigen-obtained DCs were purified and co-cultured with naïve T cells from OT-1 mice at a ratio of 1:10 for 96 h. The co-culture medium was 1640 RPMI contains 10% fetal bovine with or without 1 μg/mL OT-1 (OVA 257-264) peptide. […] Supernatant IFN-γ production was detected via CBA assay.
Bone marrow derived cells (wildtype or Ythdf1 gene deficient) were cultured with FLT3L for 9 days to get FLT3L-DC and these DCs were treated with 10 μM SAA for 12 hours, then, FLT3L-DCs were co-cultured with necrotic B16-OVA tumor cell for 6 hours. […] IFN-γ production was assessed by IFN-γ cytometric bead array.

YTHDF1 (361-559) = target: T3, YTHDF1 (361-559) (Homo sapiens, UniProt Q9BYJ9); assay: Hydrogen deuterium exchange mass spectrometry (HDX MS); format: binding; conditions: HDX 10 s to 14400 s; many peptides HDX variation over 5%
T3 construct: GST (N, cleaved yes); made in house; host or cells: E. coli BL21 (DE3)
T3 sequence (Q9BYJ9 with tags, fused parts or gaps): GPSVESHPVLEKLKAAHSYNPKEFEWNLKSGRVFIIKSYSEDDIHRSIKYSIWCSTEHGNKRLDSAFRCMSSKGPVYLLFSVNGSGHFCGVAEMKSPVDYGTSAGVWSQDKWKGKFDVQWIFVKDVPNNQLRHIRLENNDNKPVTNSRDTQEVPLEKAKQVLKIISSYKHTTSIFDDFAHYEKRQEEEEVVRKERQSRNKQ
Method: YTHDF1 (361-559) was incubated with the compound (e.g., SAA) at 4° C. overnight before the measurement. In hydrogen deuterium exchange mass spectrometry (HDX MS), the hydrogen atoms of YTHDF1 (361-559)-apo and YTHDF1 (361-559)-SAA were exchanged with deuterium for 0 s, 10 s, 30 s, 60 s, 1200 s, 3600 s and 14400 s respectively at 10° C. in buffer containing 20 mM Hepes (pH 7.4), 200 mM NaCl and D2O. And the reactions were stopped at 0.5° C. using buffer containing 4 M guanidine hydrochloride, 0.5 M TCEP and 100 mM citric acid (pH 2.3). After deuterium label reaction, the samples were digested at 4° C. by pepsin immobilized on the column in order to obtain peptides of the samples. These peptides were next separated by HPLC and analyzed via mass spectrometry, respectively. HDX MS data was analyzed in HDExaminer software (v2.4.1) and +5% were set as the threshold to pick out those peptides with significant change.
Then, hydrogen deuterium exchange mass spectrometry (HDX MS) experiment was conducted, to determine the binding sites of SAA on YTHDF1.

T1 sequence (Q9BYJ9 whole entry): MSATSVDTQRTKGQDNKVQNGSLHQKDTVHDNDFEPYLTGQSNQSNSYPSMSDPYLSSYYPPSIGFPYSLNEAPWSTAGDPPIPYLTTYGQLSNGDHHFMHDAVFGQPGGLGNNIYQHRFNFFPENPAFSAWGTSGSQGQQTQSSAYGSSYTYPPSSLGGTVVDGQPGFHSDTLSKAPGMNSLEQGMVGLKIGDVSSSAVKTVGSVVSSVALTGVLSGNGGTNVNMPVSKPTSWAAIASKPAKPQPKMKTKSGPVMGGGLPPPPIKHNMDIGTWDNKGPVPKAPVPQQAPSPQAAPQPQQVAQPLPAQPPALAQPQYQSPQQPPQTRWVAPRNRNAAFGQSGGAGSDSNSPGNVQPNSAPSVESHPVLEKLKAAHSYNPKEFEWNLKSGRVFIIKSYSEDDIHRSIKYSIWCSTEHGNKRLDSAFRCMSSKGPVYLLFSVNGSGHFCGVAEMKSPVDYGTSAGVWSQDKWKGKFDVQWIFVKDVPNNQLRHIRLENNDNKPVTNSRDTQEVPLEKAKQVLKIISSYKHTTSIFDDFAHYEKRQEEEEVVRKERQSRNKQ

CETSA curve shift to the right (YTHDF1 stability) (YTHDF1 in 293T cells): about 2 degrees
IC50 (His-YTHDF1 (361-559)): 860 ± 60 nM
conformational change of YTHDF1 on binding (deuterium uptake) (YTHDF1 (361-559)): significant conformational changes
SMILES: O=C(/C=C/c1ccc(O)c(O)c1/C=C/c1ccc(O)c(O)c1)O[C@H](Cc1ccc(O)c(O)c1)C(=O)O [SAA, Salvianolic Acid A]
cross-presentation function (IFN-γ production) (FLT3L-DCs; Ythdf1-/- FLT3L-DCs): could also promote the cross-presentation function
cross-priming of T cells (IFN-γ production) (FLT3L-DCs; wildtype FLT3L-DCs): better ability in cross-priming T cells than control group
